{
  "source": "paper PMC4840272",
  "about": "(Neoplasia (New York, N.Y.), 2016)",
  "key": {"H1650 cells": {"tested_on": "H1650 cells", "assay": "cells", "type": "cell-based, human", "conditions": "H1650, 72 hours, alamarBlue"}, "PC9 cells": {"tested_on": "PC9 cells", "assay": "cells", "type": "cell-based, human", "conditions": "PC9, 72 hours, alamarBlue"}, "H1975 cells": {"tested_on": "H1975 cells", "assay": "cells", "type": "cell-based, human", "conditions": "H1975, 72 hours, alamarBlue"}, "H1299 cells": {"tested_on": "H1299 cells", "assay": "cells", "type": "cell-based, human", "conditions": "H1299, 72 hours, alamarBlue"}, "NTUB1/P": {"tested_on": "NTUB1/P", "assay": "cytotoxicity in multiple drug-resistant and cisplatin-resistant cells", "type": "cell-based"}, "PC9/gef B4 cells": {"tested_on": "PC9/gef B4 cells", "assay": "cells", "type": "cell-based, human"}, "H460 xenograft": {"tested_on": "H460 xenograft", "assay": "H460 xenograft in nude mice", "type": "in vivo", "conditions": "BO-1978 40 mg/kg QDx5, cisplatin 6 mg/kg every 4 days x3"}, "CL141T cells": {"tested_on": "CL141T cells", "assay": "cells", "type": "cell-based, human", "conditions": "72 hours, alamarBlue"}, "MES-SA": {"tested_on": "MES-SA", "assay": "cytotoxicity in multiple drug-resistant and cisplatin-resistant cells", "type": "cell-based"}, "NTUB1": {"tested_on": "NTUB1", "assay": "cytotoxicity in multiple drug-resistant and cisplatin-resistant cells", "type": "cell-based"}, "MES-SA/dx5": {"tested_on": "MES-SA/dx5", "assay": "cytotoxicity in multiple drug-resistant and cisplatin-resistant cells", "type": "cell-based", "conditions": "for resistance factor: MES-SA/dx5 vs MES-SA"}, "A549 cells": {"tested_on": "A549 cells", "assay": "cells", "type": "cell-based, human", "conditions": "A549, 72 hours, alamarBlue"}, "H460 cells": {"tested_on": "H460 cells", "assay": "cells", "type": "cell-based, human", "conditions": "H460, 72 hours, alamarBlue"}, "CL97 cells": {"tested_on": "CL97 cells", "assay": "cells", "type": "cell-based, human", "conditions": "CL97, 72 hours, alamarBlue"}, "CL100 cells": {"tested_on": "CL100 cells", "assay": "cells", "type": "cell-based, human", "conditions": "CL100, 72 hours, alamarBlue"}, "CL1-5 cells": {"tested_on": "CL1-5 cells", "assay": "alamarBlue in vitro cytotoxicity assay", "type": "cell-based, human", "conditions": "CL1-5, 72 hours, alamarBlue"}},
  "note": "Read-outs that look alike come from different tables or passages of the source.",
  "data": [
    {"smiles": "N.N.[Cl][Pt][Cl]", "note": "[Cisplatin]", "values": [
      {"measurement": "IC50", "setting": "H1650 cells", "value": "36.5 ± 8.14", "unit": "µM"},
      {"measurement": "IC50", "setting": "PC9 cells", "value": "16.4 ± 3.29", "unit": "µM"},
      {"measurement": "IC50", "setting": "H1975 cells", "value": "16.1 ± 4.03", "unit": "µM"},
      {"measurement": "IC50", "setting": "H1299 cells", "value": "16.5 ± 0.9", "unit": "µM"},
      {"measurement": "IC50", "setting": "NTUB1/P; NTUB1/P", "value": "62.1 ± 15.3", "unit": "µM"},
      {"measurement": "resistance factor", "setting": "NTUB1/P; NTUB1/P vs NTUB1", "value": 20.9, "unit": "x"},
      {"measurement": "resistance factor of PC9/gef B4 to PC9 cells", "setting": "PC9/gef B4 cells; IC50 ratio, number in brackets", "value": 2.10},
      {"measurement": "IC50", "setting": "PC9/gef B4 cells; PC9/gef B4, 72 hours, alamarBlue", "value": "34.3 ± 1.62", "unit": "µM"},
      {"measurement": "body weight loss", "setting": "H460 xenograft; H460 xenograft mice", "value": "approximately 12%"},
      {"measurement": "H460 xenograft tumor size suppressed/reduced to", "setting": "H460 xenograft; i.v.", "value": 52, "unit": "%"},
      {"measurement": "IC50", "setting": "CL141T cells", "value": "2.8 ± 0.36", "unit": "µM"},
      {"measurement": "IC50", "setting": "MES-SA", "value": "1.82 ± 0.66", "unit": "µM"},
      {"measurement": "IC50", "setting": "NTUB1", "value": "2.97 ± 1.43", "unit": "µM"},
      {"measurement": "IC50", "setting": "MES-SA/dx5; MES-SA/dx5", "value": "2.27 ± 0.73", "unit": "µM"},
      {"measurement": "resistance factor", "setting": "MES-SA/dx5", "value": 1.25, "unit": "x"},
      {"measurement": "IC50", "setting": "A549 cells", "value": "31.1 ± 3.03", "unit": "µM"},
      {"measurement": "IC50", "setting": "H460 cells", "value": "9.94 ± 0.47", "unit": "µM"},
      {"measurement": "IC50", "setting": "CL97 cells", "value": "14.7 ± 0.34", "unit": "µM"},
      {"measurement": "IC50", "setting": "CL100 cells", "value": "6.21 ± 3.64", "unit": "µM"},
      {"measurement": "IC50", "setting": "CL1-5 cells", "value": "2.82 ± 0.28", "unit": "µM"}
    ]},
    {"smiles": "COc1cccc2c1C(=O)c1c(O)c3c(c(O)c1C2=O)C[C@@](O)(C(=O)CO)C[C@@H]3O[C@H]1C[C@H](N)[C@H](O)[C@H](C)O1", "note": "[Doxorubicin]", "values": [
      {"measurement": "IC50", "setting": "MES-SA; Homo sapiens", "value": "0.038 ± 0.003", "unit": "µM"},
      {"measurement": "IC50", "setting": "MES-SA/dx5; Homo sapiens, MES-SA/Dx5", "value": "2.3 ± 0.98", "unit": "µM"},
      {"measurement": "resistance factor", "setting": "MES-SA/dx5", "value": 60.52, "unit": "x"}
    ]}
  ]
}
